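48-hour exposure; five concentrations; linearly interpolated endpoints. GI50 = concentration required for 50% inhibition of growth. TGI: total growth inhibition.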

The source of these data is PubChem BioAssay (NCI).

Experiment in all cases: inhibition of tumour cell growth, NCI panel, 48 h
The subject of test [1] is A498 renal.
For test [2], the system named is CAKI-1 renal.
The test system of test [3] is CCRF-CEM leukemia.
Test [4] relates to K-562 leukemia.
Test [5] relates to LOX IMVI melanoma.
Test [6] relates to MALME-3M melanoma.
The test system of test [7] is MOLT-4 leukemia.
Test [8] concerns NCI-H460 lung.
Test [9] deals with OVCAR-8 ovarian.
For test [10], the system named is SF-268 CNS.
Test [11] has as its system SK-MEL-2 melanoma.
Test [12] has as its system SR leukemia.
Test [13] deals with SW-620 colon.
The subject of test [14] is DU-145 prostate.
For test [15], the system named is MDA-MB-231 breast.
Test [16] deals with MDA-MB-435.
Test [17] has as its system PC-3 prostate.
Test [18] concerns T-47D breast.
Test [19] relates to HS 578T breast.

With `N#C/C(c1nc2ccccc2[nH]1)=c1\s/c(=C/c2ccccc2)c(=O)n1-c1ccccc1`, the TGI in test [1], in test [2], in test [3], in test [4], in test [5] and in [6] was > 100 µM in each case. The TGI in [7], in [8], in [9], in test [10], in [11] and in test [12] was > 100 µM each time. For the same compound, the TGI in test [13] is > 100 µM.
`O=C1C(Cl)C(c2ccccc2Cl)N1n1cnc2ccccc2c1=O` (centres undefined): the TGI in [2], in test [3], in test [4], in test [5], in [6] and in test [7] was > 100 µM in each case. Also, the TGI in [8] is > 100 µM; in test [9], > 100 µM; in test [10], > 100 µM; in test [11] it was 68.4 µM; in test [12] it was > 100 µM; in [13], > 100 µM.
Turning to `NC(=O)N/N=C(\CC1OC(=O)c2ccccc21)c1ccc([N+](=O)[O-])cc1` (centres undefined), the TGI in test [1] is > 100 µM; in [2] it was 71.3 µM; in test [3] it was > 100 µM; in test [5], 33.9 µM; in test [6] it was 73.7 µM; in test [7], > 100 µM. The TGI was > 100 µM in [8], 35.4 µM in test [11], > 100 µM in test [12] and > 100 µM in test [13].
For `CC(=O)NC(CCCNC(=O)N(C)N=O)C(=O)NCc1ccccc1` (centres undefined), the TGI in test [1], in test [2], in [3], in [4], in test [5] and in [6] was > 100 µM in each case. The TGI in [7], in [8], in test [9], in [10], in test [11] and in test [13] was > 100 µM throughout.
With `Cc1ccc(C(=O)NC2CCCCC2)cc1N=NN(C)C`, the TGI in test [2], in test [5], in [8], in [9], in test [10] and in [11] was > 100 µM each time. In addition, in test [13], the TGI is > 100 µM.
`CCc1cccc(C(C)C)c1NC(=O)/C(=N\NC(N)=O)C(C(=O)OC)c1cnc2ccccc2n1` (centres undefined): the TGI in test [1] was > 100 µM; in [2], > 100 µM; in test [3], > 100 µM; in test [4], > 100 µM; in test [5], > 100 µM; in test [6] it was 76.4 µM. The TGI is > 100 µM in test [7]; 80.7 µM in test [8]; > 100 µM in test [9]; > 100 µM in [10]; > 100 µM in test [11]; > 100 µM in test [12]. Moreover, the TGI in test [13] is > 100 µM.
As to `CC1(O)CC2C(CC1SC1CC3C(CC1(C)O)C3(C)C)C2(C)C` (centres undefined), the TGI in [3] is 95.9 µM; in test [4], > 100 µM; in test [6] it was > 100 µM; in test [7], > 100 µM; in test [8], > 100 µM; in [9], > 100 µM. The TGI in test [10] and in test [11] was > 100 µM each time.
As to `CCOC(=O)C(C)NC(=O)NC12CC3CC(CC(F)(C3)C1)C2` (centres undefined), the TGI in test [1], in test [3], in test [4], in [5], in test [6] and in [7] was > 100 µM throughout. The TGI in test [8], in test [9], in test [11] and in [13] was > 100 µM throughout.
With `O=C(NC(CS)C(=O)O)c1c2ccccc2nc2ccccc12` (centres undefined), the TGI in [1], in [2], in [3], in [14], in test [4] and in [5] was > 100 µM throughout. Also, the TGI in test [6] was 56.8 µM; in [15], > 100 µM; in test [16] it was 16 µM; in [7], > 100 µM; in [8], > 100 µM; in test [9], > 100 µM. For the same compound, the TGI in test [17], in test [10], in test [11], in test [12] and in test [13] was > 100 µM each time.
For the compound `N#CC(NNC(=O)Cc1ccccc1)c1ccc([N+](=O)[O-])cc1` (centres undefined), the TGI in test [3], in test [4], in [5], in test [6], in test [7] and in [8] was > 100 µM each time. In addition, the TGI in test [9], in test [10], in test [11], in test [12] and in test [13] was > 100 µM each time.
Regarding `COc1cc2c(c(OC)c1OC)-c1ccc(SC)c(=O)cc1[C@@H](NC(=O)c1cccc([N+](=O)[O-])c1)CC2`, the TGI is 0.0479 µM in test [1]; > 100 µM in [3]; > 100 µM in test [4]; > 100 µM in test [7]; 16.5 µM in [10]; 0.0732 µM in [12]. In addition, the TGI in test [13] is > 100 µM. Besides, the GI50 in test [12] is 0.00851 µM.
For `O=C1/C(=C/c2ccccc2Cl)COc2ccc(Br)cc21`, the TGI is > 100 µM in [1]; > 100 µM in [3]; 31.7 µM in test [4]; > 100 µM in test [5]; > 100 µM in [6]; > 100 µM in [7]. Besides, the TGI in [8], in test [9], in test [10], in [11] and in [13] was > 100 µM throughout.
For `Cc1cc(Cl)ccc1NC(=O)/C(=N\NC(C)(C)C)C(C#N)c1nc(-c2ccc([N+](=O)[O-])cc2)cs1` (centres undefined), the TGI in [1], in test [2], in test [3], in [4], in test [5] and in [6] was > 100 µM throughout. Further, the TGI in [7], in test [8], in test [9], in [10], in test [11] and in [12] was > 100 µM in each case. Further, the TGI in test [13] is > 100 µM.
For the compound `COc1cc([C@@H]2c3cc4c(cc3[C@@H](NCc3ccccc3F)C3COC(=O)[C@@H]32)OCO4)cc(OC)c1O` (some centres undefined), the TGI in test [1] was 19.7 µM; in test [2] it was 44.2 µM; in test [3] it was > 100 µM; in test [4], 35.4 µM; in [5] it was 16.7 µM; in test [6], 28.3 µM. Besides, the TGI in test [7] is 7.4 µM; in test [8] it was 13.2 µM; in test [9], > 100 µM; in test [10], > 100 µM; in test [11], 49.8 µM; in test [13], 39.1 µM.
For `CCOC(=O)c1c(CN2CCNCC2)nc2ccc(Cl)cc2c1-c1ccccc1`, the TGI came out at 23.4 µM in test [1]; 8.11 µM in test [2]; 8.21 µM in test [3]; 31.9 µM in test [14]; 7.03 µM in test [4]; 3.26 µM in test [5]. Also, the TGI in test [6] came out at 3.56 µM; in test [16] it was 8.21 µM; in test [7], 4.57 µM; in [8], 6.32 µM; in test [9], 11.7 µM; in test [17], 12.4 µM. Also, the TGI in [10] was determined as 17.9 µM; in test [11] it was 3.36 µM; in [12], 4.51 µM; in [13] it was 4.87 µM; in [18] it was 20.6 µM.
Turning to `CC(=O)OCC12CC(CC1OC(C)=O)c1ccccc12` (centres undefined), the TGI in test [1], in [2], in test [3], in test [4], in test [5] and in test [6] was > 100 µM in each case. The TGI in test [7], in test [8], in [9], in [10], in test [12] and in [13] was > 100 µM throughout.
Turning to `O=c1c2ccccc2n2c(-c3ccccc3O)nnc2n1-c1ccccc1`, the TGI in test [1], in test [2], in [3], in test [14], in test [4] and in [5] was > 100 µM in each case. Besides, the TGI in test [6], in test [15], in test [16], in test [7], in [8] and in test [9] was > 100 µM throughout. Moreover, the TGI in test [17], in test [10], in test [11], in test [12], in [13] and in [18] was > 100 µM each time.
In the case of `CC(C)CC(=O)CC(C)[C@]1(CCCOCc2ccccc2)C(=O)N2CCC3(C[C@@]24CCC[C@H]41)OCCO3` (some centres undefined), the TGI in test [1], in test [2], in [3], in test [4], in test [15] and in test [16] was > 10 µM throughout. Besides, the TGI in [7], in test [8], in test [9], in test [17], in [10] and in test [11] was > 10 µM in each case. Also, the TGI in test [12] and in [13] was > 10 µM in each case.
Consider `CC(=O)C1C(=O)C(=O)N(c2ccc([N+](=O)[O-])cc2[N+](=O)[O-])C1=O` (centres undefined), for which the TGI in test [2], in test [3], in [14], in [19], in [5] and in test [15] was > 100 µM in each case. Besides, the TGI in test [16], in [7], in [8], in test [9], in test [17] and in [10] was > 100 µM each time. The TGI in test [11] and in test [13] was > 100 µM throughout.
Consider `N#CC(O)CCOCc1ccccc1` (centres undefined), for which the TGI is > 100 µM in test [1]; 35.6 µM in [2]; > 100 µM in test [3]; > 100 µM in [14]; > 100 µM in test [4]; > 100 µM in test [5]. Also, the TGI was > 100 µM in test [15]; > 100 µM in test [16]; 14.8 µM in test [7]; > 100 µM in test [8]; > 100 µM in [9]; > 100 µM in [17]. Also, the TGI in [10], in test [11], in test [12], in [13] and in [18] was > 100 µM in each case.
For `Oc1ccc(Br)cc1C=Nc1c(NC2CCCCC2)oc2ccc(Br)cc12`, the TGI was > 100 µM in test [1]; > 100 µM in test [2]; 20.2 µM in [3]; > 100 µM in [14]; 29.2 µM in test [4]; 38.7 µM in test [5]. Also, the TGI in [6], in test [15], in [16], in test [8], in test [9] and in test [10] was > 100 µM in each case. The TGI in test [12], in [13] and in test [18] was > 100 µM each time.
